According to PMC6664396, “A golden opportunity: benzofuranone modifications of aurones and their influence on optical properties, toxicity, and potential as dyes” (Beilstein Journal of Organic Chemistry, 2019):

Tests used:
[1] = test system: Hep G2 human liver cancer cells; assay: Hep G2 cytotoxicity assay (MTT); format: cell-based; design: Average % Inhibition: tested at 200 µM; conditions: for Hep G2 % inhibition: 200 μM concentration of compound, 3 days incubation, MTT readout; for % Inhibition: Hep G2 MTT absorbance relative to vehicle; for Average % Inhibition: average of Triplicates 1-3 (T1, T2, T3), Hep G2 MTT
Method: An initial screening of toxicity was conducted at a fairly high concentration (200 μM) on the present series of compounds using a standard HEP G2 inhibition assay (Table 1). Compared to a currently used yellow dye (tartrazine), the aurones are similar to more toxic. Within the aurone series, though, an interesting pair of trends can be observed. First, all hydroxylated aurones are comparatively more toxic, displaying >50% inhibition at 200 μM. Methyl groups are similarly mostly more toxic. For the halogens, however, location is fairly important, with the 6 or 7 position being much less toxic (similar to tartrazine) and dramatically better than the unsubstituted base compound 1, with the unexpected exception of 7-bromo compound 10. Whether this trend is general or not for aurone compounds is an interesting question for future study.
Hep G2 cytotoxicity assay
Hep G2 human liver cancer cells were cultured in phenol red Dulbecco’s
Modified Eagle Medium (DMEM) with 10% fetal bovine serum (FBS) and 1% Pen-strep (PSG) under 37°C and 5% CO2 atmospheric conditions. The cells were washed with phosphate buffered saline (PBS) and diluted with phenol red free DMEM to a concentration between 200,000 to 250,000 cells/mL. The cells we re distributed in a 96-well plate with each well containing 100 µL of the cell solution and were allowed to settle for 2 hours in the incubator. The cells were then treated with 200 µM of the aurones in DMSO and the known dyes in 10:90 (v:v) DMSO/ultrapure water in triplicates and were left in the incubator for 3 days. The vehicles were used as the negative controls (DMSO for the aurones and 10:90 DMSO:ultrapure water for the known dyes). 20 µL of 5 mg/mL MTT (3-(4,5-dimethylthiazol-2-yl)-2,5-diphenyltetrazolium bromide) was added to each well containing treated cells after the 3-day incubation period and was allowed to settle in the incubator for 3.5 more hours. Finally, the media was removed from the wells and replaced by 100 µL of DMSO to lyse the cells and dissolve the formazan crystals that were formed. The absorbance was then recorded on the SpectraMax M5 Multi -Mode Microplate Reader. The procedure was repeated two more times using different batches of cultured Hep G2 cells on different days. […]

[2] = UV–vis spectra in acetonitrile (λmax, extinction coefficient); format: physicochemical; design: λmax: unit: nm; conditions: for dissolution for ε determination: in CH3CN, printed in the ε column
Method: With the desired compounds in hand, their UV–visible spectra were recorded at concentrations between 29 and 44 μM in acetonitrile (Figure 3 and Table 1). While not all substituents were prepared at every position, some interesting trends were observed. Substitution at the 4-position whether halogen or hydroxy afforded essentially identical lambda maxima (390 nm), slighly red-shifted compared to the unsubstituted compound 1. On the other hand, hydroxy groups at the 6-position result in a significant blue shift of this lambda max by roughly 40 nm to around 338 nm, presumably due to their donating effect and conjugation with the carbonyl oxygen. […] On the other hand, substitution at the 7-position had virtually no effect, which is to be expected due to the lack of direct conjugation with the carbonyl as well as the only modest electronic effects of alkyl, chlorine, and bromine. In general, the substituent effects are all fairly modest and result in fairly moderate changes in the extinction coefficient (although hydroxy substitution does definitely increase this value by roughly 50%).

[3] = UV–vis spectra determined in CH3CN
[4] = supplement sheet Tabular ε Data, slope of linear equation, unit not given, in L mol⁻¹ cm⁻¹
[5] = supplement sheet Tabular ε Data, unit not given

| Molecule | ε ([2]; UV–vis in CH3CN, at λmax) [L/mol/cm] | λmax [2, 3] [nm] | ε [2, 4] | λmax [2, 5] | dissolution for ε determination [2] | dissolution for ε determination ([2]; listed as 6OH7Me) | Hep G2 % inhibition [1] [%] | % Inhibition ([1]; Triplicate 1) [%] | % Inhibition ([1]; Triplicate 2) [%] | % Inhibition ([1]; Triplicate 3) [%] | Average % Inhibition [1] [%] |
| --- | --- | --- | --- | --- | --- | --- | --- | --- | --- | --- | --- |
| Cc1ccc(C=C2Oc3cc(O)cc(C)c3C2=O)cc1 [Compound 16] | 30445 | 338 | 30445 | 338 | – | – | 67.76 ± 6.06 | 77.36 | 54.17 | 71.74 | – |
| Alizarin Y [reference compound] | – | – | – | – | – | – | -54.45 | -50.46 | -60.58 | -52.30 | – |
| O=C([O-])C1=NN(c2ccc(S(=O)(=O)[O-])cc2)C(=O)C1N=Nc1ccc(S(=O)(=O)[O-])cc1.[Na+].[Na+].[Na+] (stereo not drawn) [tartrazine, reference compound] | – | – | – | – | – | – | 6.81 | 14.72 | 3.80 | 1.93 | – |
| Cc1ccc(/C=C2\Oc3cccc(O)c3C2=O)cc1 [Compound 15] | 22664 | 390 | 22664 | 390 | – | – | 54.04 ± 4.65 | 62.56 | 40.66 | 58.91 | – |
| Cc1ccc(/C=C2\Oc3c(ccc(O)c3C)C2=O)cc1 [Compound 17] | – | 336 | – | 336 | will not dissolve completely | will not dissolve | 78.58 ± 7.11 | 77.81 | 74.71 | 83.21 | – |
| Cc1ccc(/C=C2\Oc3c(C)cccc3C2=O)cc1 [Compound 13] | 18380 | 386 | 18380 | 386 | – | – | 87.54 ± 1.61 | 89.87 | 82.08 | 90.66 | – |
| Cc1ccc(/C=C2\Oc3cccc(Cl)c3C2=O)cc1 [Compound 4] | 17129 | 390 | 17129 | 390 | – | – | – | 24.72 | 7.19 | 13.49 | 15.13 |
| Cc1ccc(/C=C2\Oc3c(Cl)cccc3C2=O)cc1 [Compound 7] | 17247 | 386 | 17247 | 386 | – | – | 3.64 ± 3.64 | 7.01 | -3.78 | 7.69 | – |

Further lines, with some results ahead:

| ε ([2]; UV–vis in CH3CN, at λmax) [L/mol/cm] | λmax [2, 3] [nm] | ε [2, 4] | λmax [2, 5] | dissolution for ε determination [2] | dissolution for ε determination ([2]; listed as 6OH7Me) | Molecule | Hep G2 % inhibition [1] [%] | % Inhibition ([1]; Triplicate 1) [%] | % Inhibition ([1]; Triplicate 2) [%] | % Inhibition ([1]; Triplicate 3) [%] | Average % Inhibition [1] [%] |
| --- | --- | --- | --- | --- | --- | --- | --- | --- | --- | --- | --- |
| 16551 | 394 | 16551 | 394 | – | – | Cc1ccc(/C=C2\Oc3ccc(Cl)cc3C2=O)cc1 [Compound 5] | 72.68 ± 2.77 | 72.62 | 63.25 | 82.18 | – |
| 33050 | 338 | 33050 | 338 | – | – | Cc1ccc(/C=C2\Oc3cc(O)ccc3C2=O)cc1 [Compound 14] | 66.79 ± 3.04 | 60.23 | 53.07 | 87.07 | – |
| 19522 | 382 | 19522 | 382 | – | – | Cc1ccc(/C=C2\Oc3cc(C)c(C)cc3C2=O)cc1 [Compound 12] | 24.95 ± 2.23 | 30.58 | 22.83 | 21.44 | – |
| 23187 | 378 | 23187 | 378 | – | – | Cc1ccc(/C=C2\Oc3cc(Cl)ccc3C2=O)cc1 [Compound 6] | 25.07 ± 18.77 | 19.67 | 34.31 | 21.23 | – |
| 22250 | 390 | 22250 | 390 | – | – | Cc1ccc(/C=C2\Oc3c(Br)cccc3C2=O)cc1 [Compound 10] | – | 8.16 | -1.79 | 11.18 | 5.85 |
| 15112 | 394 | 15112 | 394 | – | – | Cc1ccc(C=C2Oc3ccc(Br)cc3C2=O)cc1 [Compound 8] | 59.35 ± 1.25 | 65.35 | 37.11 | 75.61 | – |
| 22435 | 378 | 22435 | 378 | – | – | Cc1ccc(/C=C2\Oc3cc(Br)ccc3C2=O)cc1 [Compound 9] | 75.22 ± 3.84 | 77.38 | 72.50 | 75.78 | – |
| 15470 | 390 | 15470 | 390 | – | – | Cc1ccc(/C=C2\Oc3ccc(C)cc3C2=O)cc1 [Compound 11] | 80.88 ± 1.38 | 79.75 | 75.21 | 87.68 | – |
| 24252 | 370 | 24252 | 370 | – | – | Cc1ccc(/C=C2\Oc3cc(F)ccc3C2=O)cc1 [Compound 3] | 3.52 ± 3.39 | 5.64 | 13.37 | -8.44 | – |
| 20208 | 382 | 20208 | 382 | – | – | Cc1ccc(C=C2Oc3ccccc3C2=O)cc1 [Compound 1] | 86.27 ± 1.09 | 88.03 | 81.21 | 89.58 | – |
| 17188 | 394 | 17188 | 394 | – | – | Cc1ccc(/C=C2\Oc3ccc(F)cc3C2=O)cc1 [Compound 2] | 87.01 ± 0.56 | 90.35 | 81.77 | 88.89 | – |
